This assay relates to BALB/3T3 cells. In words: MTT assay, BALB/3T3 fibroblasts. Particulars: mouse fibroblasts, read-out: IC50 BALB/3T3 (MTT, lack of toxicity). It counts as cell-based. On the procedure:
Cells were treated for 24 h, and N-acetylcystein (NAC), a compound well-known for its antioxidant capacity, was used as a reference molecule. […] Compound 3h was able to reduce ROS formation by 61.4 ± 2% at the maximum concentration of 160 μM in the BALB/3T3 cells, as shown by the quantification of fluorescence intensity, proving compound 3h to be a good ROS scavenger.
The four cell lines used in this work (MCF-7, MDA-MB-231, MCF-10A, and 3T3-L1) were obtained from the American Type Culture Collection (ATCC, Manassas, VA, USA). All cell lines were maintained at 37 °C in a humidified atmosphere of 95% air and 5% CO2 and periodically screened for contamination. […]
Cell viability was evaluated by means of the 3-(4,5-dimethylthiazol-2-y1)-2,5-diphenyltetra zolium bromide (MTT, Sigma-Aldrich, Milan, Italy) assay. […] Cells were lysed with DMSO after 2 h of incubation at 37 °C, and optical density at 570 nm was then determined with a microplate reader. Using GraphPad Prism 9 software (GraphPad Inc., San Diego, CA, USA), the mean absorbance for each sample was expressed as a percentage over the control and plotted vs. drug concentrations to establish the IC50 values. […]

Bounds are passed on as bounds.

Regarding `O=C1c2ccccc2C(=O)N1c1nc2ccc(Oc3ccccc3)cc2s1` [3h, 2-[6-Phenoxy-1,3-benzothiazol-2-yl]-1H-isoindole-1,3(2H)-dione], the IC50 was > 200 µM.
